Results on 21 molecules are retold here after US20120142685A1, “ORGANIC COMPOUNDS” (priority 2007, published 2012).

The target of one test is T1, protein kinase D3 (PKD3) (Homo sapiens, UniProt O94806).
T1 construct: This assay is performed with full length wild-type enzyme that is purchased from Invitrogen; purchased Invitrogen
T1 sequence (O94806 1-890): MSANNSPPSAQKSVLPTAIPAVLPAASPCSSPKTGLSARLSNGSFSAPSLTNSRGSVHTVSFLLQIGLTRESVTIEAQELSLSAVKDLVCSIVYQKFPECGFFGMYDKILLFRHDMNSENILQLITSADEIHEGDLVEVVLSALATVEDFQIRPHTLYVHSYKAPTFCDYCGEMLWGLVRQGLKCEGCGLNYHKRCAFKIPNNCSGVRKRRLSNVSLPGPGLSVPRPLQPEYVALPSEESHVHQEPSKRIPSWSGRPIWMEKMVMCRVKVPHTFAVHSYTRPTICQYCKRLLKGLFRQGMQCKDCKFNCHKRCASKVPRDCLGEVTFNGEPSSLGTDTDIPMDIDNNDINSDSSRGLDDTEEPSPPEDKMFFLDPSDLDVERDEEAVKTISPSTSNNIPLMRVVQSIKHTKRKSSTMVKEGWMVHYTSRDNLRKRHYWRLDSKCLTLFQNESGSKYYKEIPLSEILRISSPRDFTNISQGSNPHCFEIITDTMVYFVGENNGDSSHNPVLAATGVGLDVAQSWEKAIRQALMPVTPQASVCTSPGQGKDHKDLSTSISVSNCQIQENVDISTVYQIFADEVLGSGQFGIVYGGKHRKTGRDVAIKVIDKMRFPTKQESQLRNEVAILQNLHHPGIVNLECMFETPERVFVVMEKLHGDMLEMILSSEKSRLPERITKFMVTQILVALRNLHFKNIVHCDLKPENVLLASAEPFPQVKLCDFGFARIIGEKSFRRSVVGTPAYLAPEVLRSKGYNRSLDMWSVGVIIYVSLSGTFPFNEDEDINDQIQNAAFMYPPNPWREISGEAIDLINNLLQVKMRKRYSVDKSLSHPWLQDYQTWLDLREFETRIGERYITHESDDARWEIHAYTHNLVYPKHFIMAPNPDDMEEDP
As to the kind of experiment: PKD3 TR-FRET (LANCE) kinase assay.
Settings: not given
Format: biochemical. The source says: The assay to measure protein kinase D3 (PKD3) activity is a time-resolved fluorescence resonance transfer (TR-FRET) assay using PerkinElmer's LANCE™ technology. In this case, a biotinylated syntide-2 peptide is used as the substrate in this reaction. Phosphorylation of the syntide-2 substrate is detected by a specific antibody that recognizes the phosphorylated peptide. A second fluorophore, APC, is conjugated to streptavidin that binds the biotinylated syntide-2 peptide. […] Therefore, when the europium labeled secondary antibody binds on the phosphorylated peptide, it is brought into close contact with the APC and excites this fluorophore.
This assay is performed with full length wild-type enzyme that is purchased from Invitrogen. The reaction buffer consists of 35 mM Tris-HCl pH7.5, 5 mM MgCl2, 0.02% Tween-20, 20 μM ATP, 1 mM DTT and 0.2 μg/mL PKD3 enzyme. The enzyme reaction is initiated by the addition of 2 μM syntide-2 peptide substrate and the reaction carried out for 50 minutes at room temperature. The reaction is stopped by a stop/detection buffer consisting of 50 mM EDTA, 0.18 mg/mL rabbit polyclonal anti-phospho syntide-2 antibody, 0.5 nM europium labeled anti-rabbit IgG and 10 nM streptavidin conjugated APC. After a one hour incubation with the stop/detection buffer, the reaction is read on an Envision 2100 Reader using a LANCET™ Eu/APC dual protocol. […] IC50 values are calculated using an Activity Base (IDBS) software program.
On to `CN1CCN(c2nc(-c3ccnc(NC4CCCCC4)c3)cc3cnccc23)CC1` [Example 13, Cyclohexyl-{4-[1-(4-methylpiperazin-1-yl)-[2,6]naphthyridin-3-yl]pyridin-2-yl}amine], for which the IC50 was determined as 1 nM.

`CNc1cc(-c2cc3cnccc3c(NC)n2)ccn1` [Example 2, 1-Methylamino-3-(2-methylaminopyridin-4-yl)-[2,6]-naphthyridine] had an IC50 of 450 nM.

The same test, now with this note: full length wild-type enzyme, 20 μM ATP; read-out: Inhibitory Activity PKD3.
On to `NC(=O)C1CCN(c2nc(-c3ccnc(NC4CCCCC4)c3)cc3cnccc23)CC1` [Example 10, 1-[3-(2-Cyclohexylaminopyridin-4-yl)-[2,6]naphthyridin-1-yl]piperidine-4-carboxylic acid amide], for which the IC50 worked out at 83 nM.

Consider `O=C(NC1CC1)C1CCN(c2nc(-c3ccnc(NC4CCOCC4)c3)cc3cnccc23)CC1` [Example 17, 1-{3-[2-(Tetrahydropyran-4-ylamino)pyridin-4-yl]-[2,6]naphthyridin-1-yl}piperidine-4-carboxylic acid cyclopropylamide], for which the IC50 came out at 3 nM.

In the case of `CNc1cc(-c2cc3cnccc3c(NCCCO)n2)ccn1` [Example 1], the IC50 is 227 nM.

With `COCCNc1cc(-c2cc3cnccc3c(N3CCNCC3)n2)ccn1` [Example 21, (2-Methoxyethyl)-[4-(1-piperazin-1-yl-[2,6]naphthyridin-3-yl)-pyridin-2-yl]amine], the IC50 worked out at 10 nM.

Take `CC(=O)N1CCN(c2nc(-c3ccnc(NC4CCCCC4)c3)cc3cnccc23)CC1` [Example 11, 1-{4-[3-(2-Cyclohexylaminopyridin-4-yl)-[2,6]naphthyridin-1-yl]piperazin-1-yl}ethanone]: the IC50 worked out at 23 nM.

Regarding `O=C(NCCO)C1CCN(c2nc(-c3ccnc(NC4CCOCC4)c3)cc3cnccc23)CC1` [Example 16, 1-{3-[2-(Tetrahydropyran-4-ylamino)pyridin-4-yl]-[2,6]naphthyridin-1-yl}piperidine-4-carboxylic acid (2-hydroxyethyl)amide], the IC50 came to 2 nM.

For the molecule `OCCNc1nc(-c2ccnc(NC3CCCCC3)c2)cc2cnccc12` [Example 5, 2-[3-(2-Cyclohexylaminopyridin-4-yl)-[2,6]naphthyridin-1-ylamino]ethanol], the IC50 was determined as 339 nM.

On to `CC(C)Nc1cc(-c2cc3cnccc3c(NCCO)n2)ccn1` [Example 6, 2-[3-(2-Isopropylaminopyridin-4-yl)-[2,6]naphthyridin-1-ylamino]ethanol], for which the IC50 worked out at 120 nM.

Turning to `c1cc2c(NC3CCCNC3)nc(-c3ccnc(NC4CCCCC4)c3)cc2cn1` (stereo not drawn) [Example 15, [3-(2-Cyclohexylaminopyridin-4-yl)-[2,6]naphthyridin-1-yl]piperidin-3-ylamine], the IC50 was 19 nM.

On to `c1cc2c(N3CCNCC3)nc(-c3ccnc(NC4CCCCC4)c3)cc2cn1` [Example 3, Cyclohexyl-[4-(1-piperazin-1-yl-[2,6]naphthyridin-3-yl)pyridin-2-yl]amine], for which the IC50 was 0.3 nM.

With `c1ccc(Nc2cc(-c3cc4cnccc4c(N4CCNCC4)n3)ccn2)cc1` [Example 4, Phenyl-[4-(1-piperazin-1-yl-[2,6]naphthyridin-3-yl)pyridin-2-yl]amine], the IC50 came to 8 nM.

Consider `COc1cccc(Nc2cc(-c3cc4cnccc4c(NCCO)n3)ccn2)c1` [Example 7], for which the IC50 was determined as 62 nM.

`CN(C)CCNc1nc(-c2ccnc(NC3CCCCC3)c2)cc2cnccc12` [Example 8, N-[3-(2-Cyclohexylaminopyridin-4-yl)-[2,6]naphthyridin-1-yl]-N′,N′-dimethylethane-1,2-diamine]: the IC50 was determined as 58 nM.

As to `CN(C)CCNc1nc(-c2ccnc(Nc3ccccc3)c2)cc2cnccc12` [Example 9, N,N-Dimethyl-N′-[3-(2-phenylaminopyridin-4-yl)-[2,6]naphthyridin-1-yl]-ethane-1,2-diamine], the IC50 is 39 nM.

With `Cn1ccc(Nc2cc(-c3cc4cnccc4c(N4CCC5(CCNC5=O)CC4)n3)ccn2)n1` [Example 20, 8-{3-[2-(1-Methyl-1H-pyrazol-3-ylamino)pyridin-4-yl]-[2,6]naphthyridin-1-yl}-2,8-diaza-spiro[4.5]decan-1-one], the IC50 worked out at 9 nM.

On to `Cn1ccc(Nc2cc(-c3cc4cnccc4c(N4CCC(C(N)=O)CC4)n3)ccn2)n1` [Example 19, 1-{3-[2-(1-Methyl-1H-pyrazol-3-ylamino)pyridin-4-yl]-[2,6]naphthyridin-1-yl}piperidine-4-carboxylic acid amide], for which the IC50 worked out at 0.4 nM.

For the molecule `c1cc2c(NC3CCNC3)nc(-c3ccnc(NC4CCCCC4)c3)cc2cn1` (stereo not drawn) [Example 14, [3-(2-Cyclohexylaminopyridin-4-yl)-[2,6]naphthyridin-1-yl]pyrrolidin-3-ylamine], the IC50 was found to be 1 nM.

With `CN(C)CC1CCN(c2nc(-c3ccnc(NC4CCCCC4)c3)cc3cnccc23)CC1` [Example 12, Cyclohexyl-{4-[1-(4-dimethylaminomethylpiperidin-1-yl)-[2,6]naphthyridin-3-yl]pyridin-2-yl}amine], the IC50 came to 21 nM.

In the case of `CCNC(=O)N1CCN(c2nc(-c3ccnc(Nc4ccn(C)n4)c3)cc3cnccc23)CC1` [Example 18, 4-{3-[2-(1-Methyl-1H-pyrazol-3-ylamino)pyridin-4-yl]-[2,6]naphthyridin-1-yl}piperazine-1-carboxylic acid ethylamide], the IC50 amounted to 30 nM.
